Measurements from PubChem BioAssay (NCI).
“And” between values parts separate entries of the source, which are not always exact repeats. Equal values may be shown once.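 Where inhibition never reached the appropriate level, the endpoint shown equals the highest concentration tested. Otherwise, values were interpolated linearly from a five-concentration, 48-hour dose response in 96-well plates. Abbreviation: GI50, concentration required for 50% inhibition of growth. The concentration for full growth arrest is given as TGI.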

Legend:
Experiment in all cases: NCI tumour cell line growth inhibition, 48 h
OVCAR-3 ovarian = tested on: OVCAR-3 ovarian
KM12 colon = tested on: KM12 colon
HT29 colon = tested on: HT29 colon
NCI-H460 lung = tested on: NCI-H460 lung
CCRF-CEM leukemia = tested on: CCRF-CEM leukemia
SW-620 colon = tested on: SW-620 colon
U251 CNS = tested on: U251 CNS
NCI-H23 lung = tested on: NCI-H23 lung
UO-31 renal = tested on: UO-31 renal
DU-145 prostate = tested on: DU-145 prostate

Row | SMILES | GI50 (OVCAR-3 ovarian) | TGI (OVCAR-3 ovarian) | GI50 (KM12 colon) | TGI (KM12 colon) | GI50 (HT29 colon) | TGI (HT29 colon) | GI50 (NCI-H460 lung) | TGI (NCI-H460 lung) | GI50 (CCRF-CEM leukemia) | TGI (CCRF-CEM leukemia) | GI50 (SW-620 colon) | TGI (SW-620 colon) | GI50 (U251 CNS) | TGI (U251 CNS) | GI50 (NCI-H23 lung) | TGI (NCI-H23 lung) | GI50 (UO-31 renal) | TGI (UO-31 renal) | GI50 (DU-145 prostate) | TGI (DU-145 prostate)
1 | Cc1cc(NCc2cc(Nc3ccnc4cc(Cl)ccc34)ccc2F)nc(N2CCCC2)n1 | 1.63 µM | 3.22 µM | 1.97 µM | 4.53 µM | 0.877 µM | 2.27 µM | 1.35 µM | 2.96 µM | 0.353 µM | > 100 µM | 1.23 µM | 2.95 µM | 1.73 µM | 3.32 µM | 1.83 µM | 4.68 µM | 1.27 µM | 2.86 µM | 1.94 µM | 4.46 µM
2 | CC12CCC(C(=O)OC1=O)C(C)(C)O2 (stereo unspecified) |  | > 100 µM |  | > 100 µM |  | > 100 µM |  | > 100 µM |  | > 100 µM |  | > 100 µM |  | > 100 µM |  | > 100 µM |  | > 100 µM |  | > 100 µM
3 | CN(C)CCNc1nc(-c2ccc3ccccc3c2)nc2nc[nH]c12 |  | 21 µM |  | 19.3 µM |  | 16.4 µM |  | 15.6 µM |  | 52.9 µM |  | 24.6 µM |  | 31 µM |  | 23.9 µM |  | 12.9 µM |  | 23.7 µM
4 | C/C=C/[P+](c1ccccc1)(c1ccccc1)c1ccccc1 |  | 7.94 µM |  | 7.7 µM |  | 12.9 µM |  | 28.3 µM |  | > 42.4 µM |  | 24.3 µM |  | 15.1 µM |  | 14.3 µM |  | 88.6 µM |  | 18.6 µM
5 | Cc1c2cc[n+](CCN3CCCCC3)cc2c(C)c2c1[nH]c1ccc(O)cc12 | 11.1 µM | 40.2 µM and > 50.3 µM | 3.14 µM | 27.9 µM and 14.1 µM | 4.67 µM | 28 µM and 47.4 µM | 0.523 µM | 10 µM and > 32.8 µM | 1.8 µM | 17.4 µM and > 100 µM | 6.26 µM | 55.4 µM and > 71 µM | 1.7 µM | 10.6 µM and 10.4 µM | 2.6 µM | 53.1 µM and 27.7 µM | 9.25 µM | 69.9 µM and 61.2 µM |  | 11.5 µM
6 | Cc1ccc(Oc2ccc(C)cc2[N+](=O)[O-])cc1 |  | > 100 µM |  | > 100 µM |  | > 100 µM |  | > 100 µM |  | > 100 µM |  | > 100 µM |  | > 100 µM |  | > 100 µM |  | > 100 µM |  | 
7 | O=S(=O)(Sc1ccc(Cl)cc1)c1ccc(Cl)cc1 |  | 30.2 µM |  | 32.5 µM |  | 35 µM |  | 37.4 µM |  | 18.5 µM |  | 32.6 µM |  | 22.3 µM |  | 30.5 µM |  | 23.9 µM |  | 
8 | COc1ccc([C@@H]2ON(C)[C@H]3CN(C)C(=O)[C@@H]23)cc1 |  | > 100 µM |  |  |  | > 100 µM |  | > 100 µM |  | > 100 µM |  | > 100 µM |  | > 100 µM |  | > 100 µM |  | > 100 µM |  | > 100 µM
9 | CCCCCCNC(=O)c1cnc(Cl)cn1 |  |  |  | 29.3 µM |  | > 100 µM |  | 37.3 µM |  | > 100 µM |  | 28.4 µM |  | 23.6 µM |  | 23.5 µM |  | 3.24 µM |  | 29.6 µM
10 | Cc1sc(Cc2ccccc2)nc1-c1ccc(N)cc1 |  | 68.8 µM |  | 46.3 µM |  | 54.8 µM |  | 50.2 µM |  | 72.8 µM |  | > 100 µM |  | 74.7 µM |  | > 100 µM |  | > 100 µM |  | 
11 | COc1ccc(N2C(=O)C3c4[nH]c5c(C)cccc5c4C4CCC(C(C)(C)C)CC4C3C2=O)cc1 (stereo unspecified) |  | > 10 µM |  | > 10 µM |  | 5.86 µM |  | 6.63 µM |  | > 10 µM |  | > 10 µM |  | > 10 µM |  | > 10 µM |  | > 10 µM |  | > 10 µM
12 | NC(=O)CCCC(NCc1c2ccccc2nc2ccccc12)C(=O)O (stereo unspecified) |  | > 100 µM |  | > 100 µM |  | > 100 µM |  | > 100 µM |  | 71.6 µM |  | > 100 µM |  | > 100 µM |  | > 100 µM |  |  |  | 
13 | Cc1ccccc1N=Nc1ccc(N=Nc2c(O)ccc3ccccc23)c(C)c1 |  | > 100 µM |  | > 100 µM |  | > 100 µM |  |  |  |  |  | > 100 µM |  | > 100 µM |  | > 100 µM |  | > 100 µM |  | > 100 µM
14 | NC(=O)NN=C(CS)CS |  | 51.3 µM |  | > 100 µM |  | > 100 µM |  | 59 µM |  | > 100 µM |  | 60 µM |  | 43.6 µM |  | 52.4 µM |  | 54.4 µM |  | 
15 | CN(C)CCCNc1ccc2ncn3c4ccccc4c(=O)c1c23 |  | 56.2 µM |  | 20.3 µM |  | 19.6 µM |  | 14.5 µM |  | 23.4 µM |  | 26.5 µM |  | > 100 µM |  | 29 µM |  | 52.3 µM |  | 
16 | CCOC(=O)/C(Cl)=C(\C)Nc1nc2c(ccc3ccccc32)s1 |  | > 100 µM |  | > 100 µM |  | > 100 µM |  | 69.3 µM |  | > 100 µM |  | > 100 µM |  | > 100 µM |  | > 100 µM |  | > 100 µM |  | 46.6 µM
17 | O=c1ccc2cc(O)c(O)cc2o1 |  | > 100 µM |  | > 100 µM |  | > 100 µM |  | > 100 µM |  | > 100 µM |  | > 100 µM |  | > 100 µM |  | > 100 µM |  | > 100 µM |  | > 100 µM
18 | CC(=O)C(O)N1C(=O)C=CC1=O (stereo unspecified) | 11600 µM |  |  | 25 µM and 31.2 µM and 34.7 µM |  |  |  | 25 µM and 34.8 µM and 33.1 µM | > 25 µM and 2.74 µM |  |  |  |  |  |  |  | 2260 µM |  | 11700 µM | 
19 | CCCCCCCSc1nc2c(C(=O)OCC)ncn2c2ccccc12 |  | > 100 µM |  | > 100 µM |  | > 100 µM |  | > 100 µM |  | > 100 µM |  | > 100 µM |  | > 100 µM |  | > 100 µM |  | > 100 µM |  | 
20 | CN(C)c1ccc(/C=N\NC(=O)CSCC(=O)N/N=C/c2ccc(N(C)C)cc2)cc1 |  | > 100 µM |  | > 100 µM |  | > 100 µM |  | > 100 µM |  | > 100 µM |  | > 100 µM |  | > 100 µM |  | > 100 µM |  | > 100 µM |  | > 100 µM
21 | COc1ccc(-c2c3c(nc4nc(SCCc5ccccc5)nc(N)c24)CCCC3)cc1OC |  | > 100 µM |  | > 100 µM |  | > 100 µM |  | > 100 µM |  | > 100 µM |  | > 100 µM |  | > 100 µM |  | > 100 µM |  | > 100 µM |  | > 100 µM
22 | CC1C(O)C2(Oc3cc4c(c5c3[C@@H](CC5O)[C@H]2C)CCC2Cc3nc5c(nc3C[C@@]42C)CC2CCC3C4=C[C@H]6O[C@@]7(O[C@@](C)(CO)C[C@@H]7O)C(C)[C@@]6(O)[C@]4(C)[C@@H](O)CC3[C@]2(C)C5)OC1(C)C (stereo partly specified) |  | 0.406 µM |  | > 3.67 µM |  | 0.456 µM |  | 0.386 µM |  | 0.194 µM |  | 1.05 µM |  | 0.114 µM |  | 0.654 µM |  | 3.14 µM |  | 
23 | N#CC(c1ccccc1)c1nc2ccc(=N)cc-2n(O)c1C(C#N)c1ccccc1 (stereo unspecified) |  | > 100 µM |  | > 100 µM |  | > 100 µM |  | > 100 µM |  | > 100 µM |  | > 100 µM |  | > 100 µM |  | > 100 µM |  | > 100 µM |  | 
24 | Cc1ccc(S(=O)(=O)NCCSCCNS(=O)(=O)c2ccc(C)cc2)cc1 |  | > 100 µM |  | > 100 µM |  | > 100 µM |  | > 100 µM |  | > 100 µM |  | > 100 µM |  | > 100 µM |  | > 100 µM |  | > 100 µM |  | > 100 µM
